Test results as given in patent US20240197738A1, “COMPOUND 7AI IN TREATING EWING SARCOMA BY INHIBITING OTUD7A” (The University of North Carolina at Chapel Hill, priority 2021, published 2024).
pKd: −log10 of the molar value.

What was measured:
[1] = test system: EWS-ERG; assay: Immunoblot of EWS-ERG protein levels; type: cell-based, human; details: A673 cells with EWS-ERG replacing EWS-FLI1
Procedure: (§1) Cells were lysed in EBC buffer (50 mM Tris pH 7.5, 120 mM NaCl, 0.5% NP-40) or Triton X-100 buffer (50 mM Tris pH 7.5, 150 mM NaCl, 1% Triton X-100) supplemented with protease inhibitors (Complete Mini, Roche) and phosphatase inhibitors (phosphatase inhibitor cocktail set I and II, Calbiochem). The protein concentrations of whole cell lysates were measured by NanoDrop OneC using the Bio-Rad protein assay reagent as described previously. Equal amounts of whole cell lysates were resolved by SDS-PAGE and immunoblotted with indicated antibodies. For immunoprecipitations analysis, unless specified, 1000 μg lysates were incubated with the indicated antibody (1-2 μg) for 3-4 hr at 4° C. followed by 1 hr incubation with 10 μL Protein A magnetic beads (New England Biolabs). Or 1000 μg lysates containing tagged molecules were incubated with agarose beads coupled antibodies for the specific tag for 3-4 hr at 4° C. For endogenous IPs, incubation of cell lysates with antibodies was extended to overnight. The recovered immuno-complexes were washed five times with NETN buffer (20 mM Tris, pH 8.0, 100 mM NaCl, 1 mM EDTA and 0.5% NP-40) before being resolved by SDS-PAGE and immunoblotted with indicated antibodies.

[2] = test system: A673 cells; assay: 2D colony formation assay, A673; type: cell-based, human; details: A673, 2-week treatment
Procedure: (§2) Indicated cells were seeded into 6-well plates (300 or 600 cells/well) or 6 cm dishes (500 or 1,000 cells/dish) and cultured in 37° C. incubator with 5% C02 for ˜14 days (as indicated in figure legends) until formation of visible colonies. Colonies were washed with 1×PBS and fixed with 10% acetic acid/10% methanol for 30 min, stained with 20% acidic acid/10% Methanol with 0.1% crystal violet until colonies were visibly stained. Colonies were then washed by tap water and air-dried. Colony numbers were manually counted. At least two independent experiments were performed to generate the error bars.

[3] = test system: Jurkat cells; assay: Cell proliferation of Jurkat cells; type: cell-based, human
Procedure: (§3) 2,000 indicated cells were seeded in each well of 96-well plates for MTT assays to monitor cell viability at indicated time periods using a method adapted from https://www.thermofisher.com/us/en/home/references/protocols/cell-culture/mtt-assay-protocol/vybrant-mtt-cell-proliferation-assay-kit.html. Briefly, at indicated time points post-cell seeding, 10 μL MTT solution was added into each well and incubated in the culture incubator (37° C. with 5% CO2) for 4 hrs. Then medium was removed and 100 μL DMSO was added into each well to dissolve the formazan crystal and incubated for 10 min at 37° C. After thorough mixing, absorbance at 540 nm was measured using the BioTek Cytation 5 Cell Imaging reader.

[4] = molecular target: T1, His-tagged OTUD7A OTU domain (aa183-449) (Homo sapiens, UniProt Q8TE49); assay: Isothermal titration calorimetry (ITC) of 7Ai with OTUD7A OTU domain; details: bacterially produced His-tagged OTUD7A OTU domain (aa183-449), read-out: binding affinity of 7Ai in vitro (ITC)
T1 construct: the bacterially produced His-tagged OTUD7A OTU domain (aa183-449) was purified; made in house; host or cells: E. coli BL21 (pET28a vector)
T1 sequence (Q8TE49 183-449): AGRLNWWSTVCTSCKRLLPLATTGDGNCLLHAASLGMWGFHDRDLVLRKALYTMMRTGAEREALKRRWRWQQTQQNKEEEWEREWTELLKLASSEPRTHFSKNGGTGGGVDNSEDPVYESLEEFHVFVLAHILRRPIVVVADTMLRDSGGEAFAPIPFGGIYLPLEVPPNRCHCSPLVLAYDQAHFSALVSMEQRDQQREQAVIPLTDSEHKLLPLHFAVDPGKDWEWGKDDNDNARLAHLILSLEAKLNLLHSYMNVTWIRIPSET
Procedure: ITC measurements were performed using a MicroCal auto-iTC200 calorimeter (MicroCal, LLC) as described previously. Briefly, His-tagged OTU domain of OTUD7A proteins were purified using BL21 strain upon induced by 0.3 mM IPTG when OD600 around 0.6 overnight at 16° C. Then purified human His-tagged OTU domain of OTUD7A was dialyzed against 50 mM HEPES buffer (pH 7.2) with 100 mM NaCl for overnight at 4° C. The concentration of the protein was determined by band intensity in a gel-cod staining SDS-PAGE gel. The ITC assay was carried out at 37 °C. The dialyzed His-OTUD7A-OTU proteins were diluted to 40 μM in the dialysis buffer containing 4% DMSO. Then, 400 μM 7Ai, dissolved in the same dialysis buffer with 4% DMSO (50 mM HEPES buffer (pH 7.2) with 100 mM NaCl) was injected into 0.4 mL of His-OTUD7A-OTU protein in the chamber for every 180 s. The dissociation constants and thermodynamic parameters were determined by using the embedded software package Origin7 (Microcal).

[5] = test system: A673 cells; assay: Transwell migration assay, A673; type: cell-based, human; details: A673 cells in vitro
Procedure: 1×10^5 cells were plated in an […], 24-well plate chamber insert (Corning Life Sciences, catalog no. 3422) with serum free DMEM medium at the top of the insert and the same medium containing 20% fetal bovine serum (FBS) at the bottom of the insert. Cells were incubated for 24 hr and fixed with 4% paraformaldehyde for 15 min. After washing with PBS, cells at the top of the insert were scraped with a cotton swab. Cells adherent to the bottom were stained with 0.5% crystal violet blue for 60 min and then washed with double-distilled H2O (ddH2O). The positively stained cells were examined under the microscope.

[6] = test system: A673 cells expressing EWS-FLI1-3A; assay: Growth of A673 cells expressing EWS-FLI1-3A; type: cell-based, human
Procedure: as §3

[7] = molecular target: OTUD7A binding to EWS-FLI1 (Homo sapiens, UniProt Q8TE49); assay: OTUD7A binding to EWS-FLI1 in cells; type: cell-based
OTUD7A binding to EWS-FLI1, sequence (Q8TE49 whole entry): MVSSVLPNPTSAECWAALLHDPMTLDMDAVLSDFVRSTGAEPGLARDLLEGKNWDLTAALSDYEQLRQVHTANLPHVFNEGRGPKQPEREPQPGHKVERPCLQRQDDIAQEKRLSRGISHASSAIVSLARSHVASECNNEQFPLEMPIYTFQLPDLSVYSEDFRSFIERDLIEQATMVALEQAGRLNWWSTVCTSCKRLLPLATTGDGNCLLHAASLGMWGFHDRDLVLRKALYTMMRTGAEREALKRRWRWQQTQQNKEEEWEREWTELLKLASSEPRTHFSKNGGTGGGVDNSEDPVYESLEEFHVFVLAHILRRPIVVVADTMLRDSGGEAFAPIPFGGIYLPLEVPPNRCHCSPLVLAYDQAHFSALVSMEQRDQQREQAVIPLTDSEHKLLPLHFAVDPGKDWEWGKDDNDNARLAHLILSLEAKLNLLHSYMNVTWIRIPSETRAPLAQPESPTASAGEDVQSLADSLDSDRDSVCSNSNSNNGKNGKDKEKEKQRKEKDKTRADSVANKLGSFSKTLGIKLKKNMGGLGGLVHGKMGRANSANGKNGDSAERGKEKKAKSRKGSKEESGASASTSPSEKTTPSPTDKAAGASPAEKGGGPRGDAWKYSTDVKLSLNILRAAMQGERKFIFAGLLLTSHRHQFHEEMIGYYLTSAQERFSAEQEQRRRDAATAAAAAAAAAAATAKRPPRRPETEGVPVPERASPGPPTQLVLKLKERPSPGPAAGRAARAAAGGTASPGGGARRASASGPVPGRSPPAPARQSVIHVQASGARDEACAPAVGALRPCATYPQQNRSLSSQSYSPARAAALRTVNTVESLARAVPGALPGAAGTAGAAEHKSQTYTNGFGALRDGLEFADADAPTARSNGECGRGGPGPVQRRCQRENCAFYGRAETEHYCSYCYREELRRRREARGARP
Procedure: as §1

[8] = test system: EWS894 cells; assay: Cell viability (MTT) assay, EWS894; type: cell-based, human; details: EWS894, 3-day treatment
Procedure: as §3

[9] = molecular target: T2, OTUD7B (Homo sapiens, UniProt Q6GQQ9); assay: Immunoblot of known OTUD7B substrates (mTORC2, APC/Cdh1); type: cell-based; details: MHH-ES-1 or EWS894 cells, 12 hrs (FIG. 5E)
T2 construct: endogenous in cells; host or cells: MHH-ES-1, EWS894
T2 sequence (Q6GQQ9 whole entry): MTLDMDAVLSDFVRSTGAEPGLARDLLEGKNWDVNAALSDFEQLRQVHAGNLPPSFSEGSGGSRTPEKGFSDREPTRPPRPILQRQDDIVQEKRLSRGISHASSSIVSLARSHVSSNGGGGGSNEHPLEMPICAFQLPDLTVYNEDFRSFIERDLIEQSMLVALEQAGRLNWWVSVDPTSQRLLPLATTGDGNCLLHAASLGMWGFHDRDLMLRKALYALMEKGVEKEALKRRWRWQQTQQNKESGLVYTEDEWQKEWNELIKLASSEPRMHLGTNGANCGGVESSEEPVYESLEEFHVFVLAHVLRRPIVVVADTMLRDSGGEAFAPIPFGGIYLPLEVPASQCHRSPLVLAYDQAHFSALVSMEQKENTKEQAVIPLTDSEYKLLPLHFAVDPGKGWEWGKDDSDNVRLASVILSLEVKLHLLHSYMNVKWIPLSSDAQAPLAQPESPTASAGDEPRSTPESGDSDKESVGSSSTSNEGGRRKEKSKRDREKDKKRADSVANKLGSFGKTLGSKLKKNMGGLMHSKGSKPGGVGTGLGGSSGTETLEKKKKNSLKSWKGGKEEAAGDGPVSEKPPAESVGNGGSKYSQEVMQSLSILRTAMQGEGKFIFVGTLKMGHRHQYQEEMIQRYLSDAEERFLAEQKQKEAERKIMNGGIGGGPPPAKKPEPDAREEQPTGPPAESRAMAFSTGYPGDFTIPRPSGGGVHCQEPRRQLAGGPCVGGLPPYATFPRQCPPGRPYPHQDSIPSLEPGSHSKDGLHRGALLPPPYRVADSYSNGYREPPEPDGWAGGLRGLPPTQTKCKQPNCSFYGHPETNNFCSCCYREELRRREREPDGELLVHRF
Procedure: as §1

[10] = test system: MHH-ES-1 cells; assay: 2D colony formation assay, MHH-ES-1; type: cell-based, human; details: MHH-ES-1, 2-week treatment (FIG. 5J)
Procedure: as §2

[11] = molecular target: T3, OTUD7A (Homo sapiens, UniProt Q8TE49); assay: Immunoblot of OTUD7A protein levels in Ewing cells; type: cell-based; details: A673 and SK-N-MC cells, 10 μM, 12 hrs
T3 construct: endogenous in cells; host or cells: A673 and SK-N-MC
T3 sequence (Q8TE49 whole entry): as the sequence (Q8TE49 whole entry) above
Procedure: as §1
Each compound was dissolved in DMSO with a concentration of 10 mM. […]

[12] = test system: FLI1; assay: Immunoblot of FLI1 proteins in normal control cells; type: cell-based, human; details: HUVEC and FF cells, doses of 7Ai for 3 days
Procedure: as §1

[13] = test system: foreskin fibroblast (FF) cells; assay: Cell viability (MTT) assay, foreskin fibroblast; type: cell-based, human; details: 72 hrs (FIG. 5S)
Procedure: as §3

EWS-ERG protein levels [1]: reduced EWS-ERG protein levels | pKd [4]: ~5.96 | OTUD7A protein levels [11]: without affecting OTUD7A protein levels
SMILES: Cn1nccc1-c1cc(-c2ccnn2C)n2nc(C(=O)Nc3cnn(Cc4c(Cl)cccc4Cl)c3)cc2n1 [7Ai]
colony formation ability [2]: reduced colony formation ability | cell proliferation [3]: reduced cell proliferation of Jurkat cells | cell migratory ability [5]: significantly reduced A673 cell migratory ability | cell growth [6]: failed to significantly suppress growth | OTUD7A binding to EWS-FLI1 [7]: did not interfere with OTUD7A binding to EWS-FLI1 | proliferation (cell viability) [8]: reduced proliferation | OTUD7B activities (known OTUD7B substrates mTORC2 and APC/Cdh1) [9]: did not significantly affect OTUD7B activities | colony formation ability [10]: reduced colony formation ability | FLI1 proteins [12]: minimal effects on FLI1 proteins | proliferation (cell viability) [13]: neglectable effects
